Laboratory results taken from BindingDB's records for PubMed 25825497 (Eli Lilly).

Columns and labels:
[1] = molecular target: Mitogen-activated protein kinase kinase kinase 7 (TAK1/MAP3K7) (Homo sapiens) (UniProt O43318); assay: Inhibition of human TAK1 by discoverX kinome scan assay
[2] = molecular target: Serine/threonine-protein kinase OSR1 (OXSR1) (Homo sapiens) (UniProt O95747); assay: Inhibition of human OSR1 by discoverX kinome scan assay
[3] = molecular target: Mitogen-activated protein kinase kinase kinase 12 (DLK/MAP3K12) (Homo sapiens) (UniProt Q12852); assay: Inhibition of human DLK by discoverX kinome scan assay
Sequence of Mitogen-activated protein kinase kinase kinase 12 (DLK/MAP3K12) (Homo sapiens) (Q12852 whole entry, looked up): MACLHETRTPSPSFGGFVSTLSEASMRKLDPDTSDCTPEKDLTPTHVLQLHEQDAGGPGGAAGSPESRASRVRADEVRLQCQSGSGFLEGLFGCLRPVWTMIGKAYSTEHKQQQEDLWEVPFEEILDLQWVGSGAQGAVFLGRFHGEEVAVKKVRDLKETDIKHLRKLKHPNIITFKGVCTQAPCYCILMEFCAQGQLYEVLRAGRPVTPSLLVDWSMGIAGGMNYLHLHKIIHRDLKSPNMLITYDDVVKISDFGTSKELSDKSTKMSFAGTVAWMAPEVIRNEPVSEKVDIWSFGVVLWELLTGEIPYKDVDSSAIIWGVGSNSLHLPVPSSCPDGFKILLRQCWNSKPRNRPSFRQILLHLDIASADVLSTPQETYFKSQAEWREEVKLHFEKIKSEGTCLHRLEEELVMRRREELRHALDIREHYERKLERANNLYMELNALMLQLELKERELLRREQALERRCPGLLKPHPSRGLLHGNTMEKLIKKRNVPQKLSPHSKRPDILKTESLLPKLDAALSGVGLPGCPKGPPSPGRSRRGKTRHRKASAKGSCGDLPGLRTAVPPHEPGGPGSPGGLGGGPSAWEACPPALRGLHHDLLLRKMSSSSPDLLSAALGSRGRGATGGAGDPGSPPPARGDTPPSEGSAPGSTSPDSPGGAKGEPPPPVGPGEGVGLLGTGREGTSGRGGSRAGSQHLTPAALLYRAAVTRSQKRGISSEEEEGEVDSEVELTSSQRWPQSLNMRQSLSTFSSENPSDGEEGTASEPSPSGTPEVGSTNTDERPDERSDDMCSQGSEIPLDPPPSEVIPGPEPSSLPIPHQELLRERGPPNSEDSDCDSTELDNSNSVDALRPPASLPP

[4] = molecular target: Serine/threonine-protein kinase PRP4 homolog (PRPF4B) (Homo sapiens) (UniProt Q13523); assay: Inhibition of human PRP4 by discoverX kinome scan assay
Sequence of Serine/threonine-protein kinase PRP4 homolog (PRPF4B) (Homo sapiens) (Q13523 whole entry, looked up): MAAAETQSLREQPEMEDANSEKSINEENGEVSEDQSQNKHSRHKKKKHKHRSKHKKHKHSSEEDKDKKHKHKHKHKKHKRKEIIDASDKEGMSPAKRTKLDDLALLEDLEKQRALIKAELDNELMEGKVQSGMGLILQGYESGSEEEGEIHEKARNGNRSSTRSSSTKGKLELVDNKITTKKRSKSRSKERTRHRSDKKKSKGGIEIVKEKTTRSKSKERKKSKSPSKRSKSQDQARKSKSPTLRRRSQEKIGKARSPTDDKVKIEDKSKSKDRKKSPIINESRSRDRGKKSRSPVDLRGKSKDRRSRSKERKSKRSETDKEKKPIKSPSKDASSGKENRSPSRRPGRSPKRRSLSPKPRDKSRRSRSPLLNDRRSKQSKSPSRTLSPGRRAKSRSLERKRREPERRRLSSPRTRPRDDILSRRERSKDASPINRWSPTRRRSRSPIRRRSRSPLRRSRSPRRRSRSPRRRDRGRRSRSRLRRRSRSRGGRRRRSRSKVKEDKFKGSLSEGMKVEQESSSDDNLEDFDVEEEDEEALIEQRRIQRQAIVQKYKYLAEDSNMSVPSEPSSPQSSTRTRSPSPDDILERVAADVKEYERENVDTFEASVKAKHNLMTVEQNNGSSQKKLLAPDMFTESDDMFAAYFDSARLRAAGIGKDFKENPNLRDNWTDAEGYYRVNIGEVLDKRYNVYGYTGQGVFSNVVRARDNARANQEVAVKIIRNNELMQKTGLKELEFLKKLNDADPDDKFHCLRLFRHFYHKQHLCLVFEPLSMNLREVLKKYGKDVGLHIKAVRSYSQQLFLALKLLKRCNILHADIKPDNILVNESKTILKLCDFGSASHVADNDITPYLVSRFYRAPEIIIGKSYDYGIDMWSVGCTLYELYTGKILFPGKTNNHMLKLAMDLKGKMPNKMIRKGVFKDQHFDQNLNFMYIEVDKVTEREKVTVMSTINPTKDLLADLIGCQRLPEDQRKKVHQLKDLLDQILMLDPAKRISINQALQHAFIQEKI

Measured: IC50

Sequence of Mitogen-activated protein kinase kinase kinase 7 (TAK1/MAP3K7) (Homo sapiens) (O43318 whole entry, looked up): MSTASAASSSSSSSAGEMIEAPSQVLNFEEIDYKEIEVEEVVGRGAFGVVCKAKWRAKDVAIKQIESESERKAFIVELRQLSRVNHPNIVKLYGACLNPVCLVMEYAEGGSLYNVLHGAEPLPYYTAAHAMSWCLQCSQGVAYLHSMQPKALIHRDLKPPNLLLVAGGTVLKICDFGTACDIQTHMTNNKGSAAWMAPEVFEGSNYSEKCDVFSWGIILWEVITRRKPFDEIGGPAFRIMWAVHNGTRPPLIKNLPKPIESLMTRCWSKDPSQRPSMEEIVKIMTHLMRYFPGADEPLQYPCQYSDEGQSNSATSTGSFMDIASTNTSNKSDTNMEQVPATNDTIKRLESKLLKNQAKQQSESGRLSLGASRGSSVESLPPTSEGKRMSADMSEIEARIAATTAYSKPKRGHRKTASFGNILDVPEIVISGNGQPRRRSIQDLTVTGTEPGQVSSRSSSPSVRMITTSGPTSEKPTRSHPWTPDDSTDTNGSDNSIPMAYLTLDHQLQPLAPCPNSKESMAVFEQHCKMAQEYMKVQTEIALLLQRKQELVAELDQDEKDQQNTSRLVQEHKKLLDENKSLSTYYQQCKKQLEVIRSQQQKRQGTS
Sequence of Serine/threonine-protein kinase OSR1 (OXSR1) (Homo sapiens) (O95747 whole entry, looked up): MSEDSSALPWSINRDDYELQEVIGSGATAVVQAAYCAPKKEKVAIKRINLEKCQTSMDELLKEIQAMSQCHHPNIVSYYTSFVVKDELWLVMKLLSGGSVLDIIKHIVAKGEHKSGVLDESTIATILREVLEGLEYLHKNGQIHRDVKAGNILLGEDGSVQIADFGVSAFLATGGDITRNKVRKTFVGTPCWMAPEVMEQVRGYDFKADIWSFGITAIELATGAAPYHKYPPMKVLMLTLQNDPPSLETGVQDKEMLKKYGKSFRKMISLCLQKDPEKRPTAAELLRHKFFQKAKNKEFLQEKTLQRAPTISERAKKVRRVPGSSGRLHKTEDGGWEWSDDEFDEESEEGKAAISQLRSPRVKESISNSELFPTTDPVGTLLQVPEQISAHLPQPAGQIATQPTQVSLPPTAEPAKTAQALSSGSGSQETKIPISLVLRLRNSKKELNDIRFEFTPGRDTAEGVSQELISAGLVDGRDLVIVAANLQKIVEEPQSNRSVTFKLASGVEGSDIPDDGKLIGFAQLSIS

Cc1cn(CCN2CCN(c3ccccc3-c3cc(C#N)cc(C(=O)NCCCN4CCCC4)c3)CC2)c2ccccc12
> 20 µM: all assays above
